These results are taken from patent US20100317639A1 (priority 2005, published 2010).

The test system of data set [1] is X-adrenoleukodystrophic fibroblasts. The settings on record: patients suffering from adrenoleucodistrophy; literature; cited from earlier work.
Another data set has as its system ACAT. The settings on record: literature statement; cited from earlier work.
For data set [2] the following is noted: literature, cited from earlier work.
The conditions of data set [3]: administered in form of triglyceride; literature; cited from earlier work.
Data set [4] has as its system acyl-coenzyme A:cholesterol acetyltransferase enzyme (ACAT). Kind of data set: Effect of the ester on ACAT activity in rat hepatic microsomes (14C-linoleic acid incorporation into cholesterol esters, TLC, beta counter). The settings on record: rat liver microsomes 200 micrograms, mean+/-standard error. Format: biochemical. How it is done:
For the experiments of effectiveness a test to evaluate the effect of the ester formed from linoleic acid obtained from example 1 and example 4 on acyl-coenzyme A:cholesterol acetyltransferase enzyme (ACAT) activity was performed. The experiment was performed in vitro according to a classic pharmacology method, used for the evaluation of the activity of this enzyme, reported in the method book: Drug discovery and evaluation, Pharmacological assay, Ed. H. G: Vogel (Springer), p. 1119, 2002.
Hepatic microsomes were prepared as well as in the example 1.
Eight tubes were prepared, in all tubes linoleic acid-^14C (10 microM) was incubated in presence of 200 micrograms of microsomes. Each tube contained phosphate buffer 0.04 M KH2PO4, pH 7.4 with 0.05 M KCl, 0.03 EDTA, 0.3 M sucrose, 1 mM α-cyclodextrin, final volume 750 microliters. The eight tubes have been incubated at 37° C. for 10 min.
The esters of example 1 and 4 were pooled together and three sample solutions of concentration 12.5, 25 and 50 micromolar respectively were prepared in duplicate, therefore obtaining six sample solutions.
The six sample solutions were then transferred respectively in six of eight tubes prepared as above at the end of the 10 minutes (each concentration of ester separately incubated per tube). The seventh tube was added with ^14C-linoleic acid alone (without esters) and the eighth with ethanol alone (carrier in which the esters were resuspended) to evaluate a possible effect of ethanol on the enzymatic activity. All the eight tubes have been incubated at 37° C. for four minutes.
At the end of the time the reaction was stopped by adding chloroform:methanol 2:1. The samples of the eight tubes were extracted according to the Folch's method (1957). The lower phase of each sample containing the lipid extracts was separated and dried, then taken-up again in 1 ml of chloroform:methanol 2:1. The extract of each sample was dried and subjected to TLC. […]
Spots were highlighted through iodine vapour. The bands which correspond to the standard for each TLC were taken off from the plate and counted in beta counter. […]
On the technique in general: Liver microsomes are a subcellular fraction often used to study metabolism.

Consider `C[C@]12CC[C@@H](O)C[C@@H]1CC[C@@H]1[C@@H]2CC[C@]2(C)[C@@H](O)CC[C@@H]12` [5α-androstan-3α,17β-diol], for which, in data set [1], the beta-oxidation entry is reported as “increase beta-oxidation” and the cholesterol esterification processes result is recorded as “reduce cholesterol esterification processes”.
With `CCCCCCCN(Cc1ccc(CC(C)(C)C)cc1)C(=O)Nc1ccc(F)cc1F` [CL 277,082, N-(2,4-difluorophenyl)-N-(4-neopentylbenzyl)-N-(n-heptyl)urea], the “inhibiting the ACAT activity” value in the data set on ACAT was “very strong and specific”.
Take `C[C@]12CCC(=O)C[C@@H]1CC[C@@H]1[C@@H]2CC[C@]2(C)[C@@H](O)CC[C@@H]12` [dihydrotestosterone, 5α-androstan-17β-ol-3-one]: in data set [1], the beta-oxidation entry is “increase beta-oxidation” and the cholesterol esterification processes result was “reduce cholesterol esterification processes”.
Regarding `CCCCCCCC/C=C\CCCCCCCCCCCC(=O)O` [erucic acid, erucic acid (C22:1)], in data set [2] (administered in form of triglyceride), the effectiveness in vivo result is recorded as “little effective”. In addition, the “crossing of the hematoencephalic barrier” value in data set [2] (in vivo) is recorded as “failed to cross the hematoencephalic barrier”. For the same compound, the effectiveness in vitro entry in data set [3] was “only partially effective”.
In the case of “monoester of the androgen 5α-androstan-3α,17β-diol (3α-diol) and of the linoleic acid (LA) (cis,cis-9,12-octadecadienoic acid) (18:2, n-6) [Example 1]”, the “inhibition percentage with reference to the untreated sample” value in data set [4] (ester 12.5 microM) is 2.5; in data set [4] (ester 25 microM), 44%; in data set [4] (ester 50 microM), 28%.
